Measured values as given in patent US9295732B2, “Conjugated TLR7 and/or TLR8 and TLR2 polycationic agonists” (CAYLA, priority 2013, dated 2016).
Several values for one entry are separate records, joined by “and”; a condition that tells them apart may be missing. Equal values may be shown once.

Key:
[1] = Nanoparticle (lipoplex) size by dynamic light scattering; details: 25° C., triplicate; for Mean Diameter: complexes with pDNA 3:24 (w:w), dynamic light scattering; for PDI: polydispersity index of complexes with pDNA 3:24 (w:w);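 on all read-outs here: lipoplexes of TLR7-TLR2 polyamine conjugates with plasmid DNA, formed over 30 min at room temperature in serum-free medium or 5% glucose, diameter in nm, PDI dimensionless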
[2] = test system: endogenous TLR2 and TLR7 in RAW-Blue™ Cells; assay: RAW-Blue Cells NF-κB/AP-1 SEAP reporter assay; assay type: cell-based, mouse; details: 24 hours, OD at 655 nm, FIG. 4
Procedure, shortened: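 HEK293 cells stably expressing the given TLR, or RAW 264.7-derived cells (50,000 or 100,000 cells/well respectively), carry an NF-κB/AP-1-inducible SEAP reporter. Conjugated TLR7-TLR2 agonists at final 10 μg/mL to 10 pg/ml, 24 h at 37° C. SEAP read colorimetrically as OD at 655 nm in detection medium.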

HEK293 cells = assay: Cell transfection with SEAP plasmid, HEK293; assay type: cell-based, human; details: in complex with pVitro14 LGFP SEAP plasmid, 48 hours, SEAP expression; FIG. 5A
Method: (§1) The TLR7-TLR2 molecules were tested for their ability as polyamine molecules to transport plasmid DNA (pDNA) into cells. The pVitro14 LGFP SEAP plasmid (InvivoGen) was complexed to TLR7-TLR2 polyamine molecules and to the control cationic lipid transfection agent, LyoVec™ (InvivoGen). The human HEK293 (ATCC, CRL-1573) and mouse B16-F1 melanoma (ATCC, CRL-6323) cell lines were seeded at a density of 50 000 cells/well and 20 000 cells/well respectively, in the absence or presence of different volumes of the plasmid encoding for the SEAP protein in complex with TLR7-TLR2 polyamine molecules for 48 hours at 37° C. and 10% CO2. Transfection efficiency was assessed by measuring SEAP reporter gene expression: 20 μl of supernatant was sampled and mixed with 180 μl of QUANTI-Blue™ Detection (InvivoGen). In the presence of alkaline phosphatase SEAP, the color of QUANTI-Blue™ changes from pink to purple/blue. The intensity of the blue hue reflects the activity of SEAP. The levels of SEAP secretion were determined quantitatively by reading the OD at 620-655 nm using a spectrophotometer, iMark™ Microplate Reader (BIO-RAD).

[3] = test system: ISG54 promoter activity in RAW-ISG54 reporter cells; assay: IFN response assay, RAW-ISG54 luciferase reporter cells; assay type: cell-based, mouse; details: in complexes with pDNA 3:24 (w:w), overnight, FIG. 6A
Method: The effect of the pDNA:TLR7-TLR2 polyamine molecules complexes on inducing an interferon response was examined. pDNA:TLR7-TLR2 polyamine molecules mixtures (pDNA:TLR7-TLR2 polyamine molecules ratio 3:24, w:w) in serum-free medium or 5% glucose were prepared as described above and added to IFN reporter cells. Luciferase reporter cell lines were used to assay interferon response. A plasmid containing an interferon-inducible luciferase reporter gene was introduced into mouse RAW 264.7 macrophages and mouse B16 melanoma cells, giving rise to the RAW-ISG54 and B16-ISG54 reporter cell lines respectively. Expression of the luciferase reporter gene by the plasmid is under the control of an interferon-inducible promoter (I-ISG54) comprising five interferon-stimulated response elements (ISRE) and the minimal promoter of the human ISG-54K (Interferon Stimulation of a Gene encoding a 54 kDa protein) gene. The ISG-54K gene is induced by interferon regulatory factor 3 (IRF3), which has a key involvement in […] responses (Grandvaux et al. 2002) and the minimal promoter of the human ISG-54K gene contains two ISRE sites and fully inducible by type I interferons (IFN-α and IFN-β) and interferon regulatory factors (IRFs) (Wathelet et al. 1988; Grandvaux et al. 2002).
The RAW-ISG54 and B16-ISG54 reporter cell lines were seeded onto 96 well microtiter plates at 100,000 cells per well and 75,000 cells per well respectively. Cells were cultured in DMEM supplemented with 10% (v/v) heat inactivated fetal bovine serum (30 min at 56° C.), 4.5 g/I glucose, 2 mM L-glutamine, 50 U/ml penicillin, 50 μg/ml streptomycin, 100 μg/ml Normocin™ (InvivoGen) together with pDNA:TLR7-TLR2 polyamine complexes at 37° C. overnight. pDNA:TLR7-TLR2 polyamine molecules complexes were prepared as described above prior to adding to the IFN reporter cells. The induced luciferase expression was assessed in the reporter cell lines using a coelenterazine-base luminescence assay reagent, the Quanti-Luc™ (InvivoGen). Secreted luciferase activity was determined by bioluminescence quantification of the cell culture media using a microplate luminometer (FLUOstar OPTIMA from BMG Labtech).

B16-F1 cells = assay: Cell transfection with SEAP plasmid, B16-F1; assay type: cell-based, mouse; details: in complex with pVitro14 LGFP SEAP plasmid, 48 hours, SEAP expression; FIG. 5B
Method: as §1

B16-F1 tumor = assay: In vivo mouse B16-F1 tumor model, molecule alone; design: species or system C57BL/6 mice; details: by day 23, intra-tumoral injections, FIG. 8A
Method: Measurements were performed under gas anesthesia.
The second group received intra-tumoral injections of CL413 molecule alone (a TLR7-TLR2 Pam2CSK4-based molecule). Third and forth groups received intra-tumoral injections of the TLR2 ligand, Pam2CSK4 alone, and the TLR7 ligand alone, respectively. A fifth group received a combined treatment of Pam2CSK4 and TLR7 ligand, in solution at the equivalent molecule quantity of the respective TLR2 and TLR7 moieties in CL413 (in 100 μl Bionolyte G5® with Pluronic® F-68 2%) for a total of 3 injections.

Row | Mean Diameter [1] | PDI [1] | Molecule | ability to activate endogenous TLR2 and TLR7 in RAW-Blue Cells [2] | ability to transfect HEK293 cells (HEK293 cells) | ability to induce an IFN response in RAW-ISG54 reporter cells [3] | ability to transfect B16-F1 cells (B16-F1 cells) | tumor volume (B16-F1 tumor)
1 | 175.1 nm and 156.9 nm and 168.3 nm | 0.253 and 0.239 and 0.258 | CCCCCCCCCCCCCCCC(=O)OCC(CSC[C@H](N)C(=O)N[C@@H](CCC(=O)NCCCNCCCCNCCCN)C(=O)Nc1ccc(Cn2c(O)nc3c(N)nc(NCCCC)nc32)cc1)OC(=O)CCCCCCCCCCCCCCC (stereo partly drawn) [CL527, (6R,9S)-6,25-diamino-9-(4-((6-amino-2-(butylamino)-8-hydroxy-9H-purin-9-yl)methyl)phenylcarbamoyl)-7,12-dioxo-4-thia-8,13,17,22-tetraazapentacosane-1,2-diyl dipalmitate] | activate endogenous TLR2 and TLR7 | transfect HEK293 cells | induce an IFN response in RAW-ISG54 reporter cells | transfect B16-F1 cells | 
2 | 170.0 nm and 190.0 nm and 180.2 nm | 0.226 and 0.230 and 0.237 | CCCCCCCCCCCCCCCC(=O)OCC(CSC[C@H](N)C(=O)NCCCNCCCCNCCCNC(=O)CNC(=O)c1ccc(Cn2c(O)nc3c(N)nc(NCCCC)nc32)cc1)OC(=O)CCCCCCCCCCCCCCC (stereo partly drawn) [CL553, (20R)-20-amino-1-(4-((6-amino-2-(butylamino)-8-hydroxy-9H-purin-9-yl)methyl)phenyl)-1,4,19-trioxo-22-thia-2,5,9,14,18-pentaazapentacosane-24,25-diyl dipalmitate] | activate endogenous TLR2 and TLR7 | transfect HEK293 cells | induce an IFN response in RAW-ISG54 reporter cells | transfect B16-F1 cells | 

More lines, now with the values behind:

Row | Molecule | Mean Diameter [1] | PDI [1] | ability to activate endogenous TLR2 and TLR7 in RAW-Blue Cells [2] | ability to transfect HEK293 cells (HEK293 cells) | ability to induce an IFN response in RAW-ISG54 reporter cells [3] | ability to transfect B16-F1 cells (B16-F1 cells) | tumor volume (B16-F1 tumor)
3 | CCCCCCCCCCCCCCCC(=O)OCC(CSC[C@H](N)C(=O)N[C@@H](COC(=O)c1ccc(Cn2c(O)nc3c(N)nc(NCCCC)nc32)cc1)C(=O)NCCCNCCCCNCCCN)OC(=O)CCCCCCCCCCCCCCC (stereo partly drawn) [CL514, (6R,9S)-6,23-diamino-9-((4-((6-amino-2-(butylamino)-8-hydroxy-9H-purin-9-yl)methyl)benzoyloxy)methyl)-7,10-dioxo-4-thia-8,11,15,20-tetraazatricosane-1,2-diyl dipalmitate] | 249.1 nm and 309.6 nm and 258.3 nm | 0.303 and 0.354 and 0.372 | activate endogenous TLR2 and TLR7 | transfect HEK293 cells | induce an IFN response in RAW-ISG54 reporter cells | transfect B16-F1 cells | 
4 | CCCCCCCCCCCCCCCC(=O)N[C@@H](CSCC(COC(=O)CCCCCCCCCCCCCCC)OC(=O)CCCCCCCCCCCCCCC)C(=O)N[C@@H](CO)C(=O)N[C@@H](CCCCN)C(=O)N[C@@H](CCCCN)C(=O)N[C@@H](CCCCN)C(=O)N[C@@H](CCCCN)C(=O)Nc1ccc(Cn2c(O)nc3c(N)nc(NCCCC)nc32)cc1 (stereo partly drawn) [CL534, ((6R,9S,12S,15S,18S,21S)-25-amino-21-(4-((6-amino-2-(butylamino)-8-hydroxy-9H-purin-9-yl)methyl)phenylcarbamoyl)-12,15,18-tris(4-aminobutyl)-9-(hydroxylmethyl)-7,10,13,16,19-pentaoxo-6-palmitamido-4-thia-8,11,14,17,20-pentaazapentacosane-1,2-diyl dipalmitate] |  |  | activate endogenous TLR2 and TLR7 | lack the ability to transfect cells |  | lack the ability to transfect cells | 
5 | (6S,9S,12S,15S,18S,21R)-6,25-diamino-21-(4-((6-amino-2-(butylamino)-8-hydroxy-9H-purin-9-yl)methyl)phenylcarbamoyl)-12,15,18-tris(4-aminobutyl)-9-(hydroxyl methyl)-7,10,13,16,19-pentaoxo-4-thia-8,11,14,17,20-pentaazapentacosane-1,2-diyl dipalmitate [CL413] |  |  | activate endogenous TLR2 and TLR7 | lack the ability to transfect cells | induce an IFN response in RAW-ISG54 reporter cells | lack the ability to transfect cells | no increase in tumor volume
